Laboratory results reported in PubChem BioAssay (NCI).
Several values for one entry are separate records, joined by “and”; a condition that tells them apart may be missing. Identical values can stand only once.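 Results reflect a 48-hour exposure of cells in 96-well plates to compound at five concentrations. GI50 is the concentration that inhibits growth by half. TGI is the concentration that stops growth completely.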

Tests used:
Test in all cases: growth of human tumour cells (NCI), 48 h
[1] = tested on: MCF7 breast
[2] = tested on: NCI-H226 lung
[3] = tested on: UACC-257 melanoma
[4] = tested on: UO-31 renal
[5] = tested on: ACHN renal
[6] = tested on: 786-0 renal
[7] = tested on: SW-620 colon
[8] = tested on: HOP-62 NSCLC
[9] = tested on: HCC-2998 colon
[10] = tested on: SR leukemia

SMILES	GI50 [1]	TGI [1]	TGI [2]	TGI [3]	TGI [4]	GI50 [5]	TGI [5]	GI50 [6]	TGI [6]	GI50 [7]	TGI [7]	GI50 [8]	TGI [8]	GI50 [9]	TGI [9]	GI50 [10]	GI50 [2]	GI50 [3]	GI50 [4]	TGI [10]
COc1cc(/C=C/c2ccnc3ccccc23)cc(OC)c1OC	2.35 µM	25.2 µM and > 100 µM	50.9 µM	91.6 µM and > 100 µM	> 100 µM	4.89 µM	92 µM and > 100 µM	4.42 µM	28.2 µM and 61.6 µM	0.906 µM	> 100 µM and 20 µM	5.87 µM	37.7 µM and > 100 µM	3.53 µM	> 100 µM and 38.4 µM	0.755 µM				
C=C1C(=O)O[C@H]2[C@H]1CC/C(COC(=O)N[C@H](Cc1c[nH]c3ccccc13)C(=O)OC)=C\CC[C@@]1(C)O[C@@H]21	1.24 µM	2.99 µM	5.73 µM	8.74 µM	2.84 µM	1.78 µM	4.22 µM	1.28 µM	2.95 µM	1.78 µM	4.17 µM	12.5 µM	28.5 µM	2.25 µM	4.6 µM	2.58 µM	2.2 µM	2.89 µM	1.49 µM	10.5 µM
O=C(O)c1[nH]c2c([N+](=O)[O-])cc([N+](=O)[O-])cc2c1C(=O)O		> 100 µM	> 100 µM	> 100 µM	> 100 µM		> 100 µM		> 100 µM		> 100 µM		> 100 µM		> 100 µM					> 100 µM
CC(=O)c1ccc(Oc2c3ccccc3nc3occc23)cc1	4.08 µM	> 100 µM	90.3 µM	> 100 µM	> 100 µM	3.57 µM	> 100 µM	33.3 µM	> 100 µM	4.87 µM	> 100 µM	> 100 µM	> 100 µM	6.35 µM	34 µM	0.842 µM	15.1 µM	4.85 µM	60.5 µM	> 100 µM
OCC1OC(n2cnc3c(NCc4ccccc4O)ncnc32)C(O)C1O (configuration not stated)	2.05 µM	17.1 µM	23.2 µM	> 100 µM	13.8 µM	0.327 µM	> 44.4 µM	0.571 µM	7.7 µM	0.291 µM	> 33.9 µM	2.33 µM	18.2 µM	1.76 µM	8.42 µM	0.413 µM	8.65 µM	> 83.6 µM	0.717 µM	> 29.3 µM
O=C(COc1cccc(/C=C2\Oc3ccc4ccccc4c3C2=O)c1)c1ccc([N+](=O)[O-])cc1	11.1 µM	28.6 µM	37.8 µM	> 100 µM	> 100 µM	60.2 µM	> 100 µM	23.6 µM	62.3 µM	14 µM	27 µM	38.5 µM	> 100 µM	15.7 µM	> 100 µM	0.305 µM	16.1 µM	> 100 µM	36.7 µM	> 100 µM
Nc1nc(N)c(-c2ccc(Cl)c(Cl)c2)c(CP(Cl)(Cl)(Cl)Br)n1	16.1 µM	> 100 µM	> 100 µM	84.7 µM	> 100 µM	6.63 µM	> 100 µM	14.6 µM	> 100 µM	4.2 µM	> 100 µM	72.7 µM	> 100 µM	19.9 µM	> 100 µM	10.2 µM	99.7 µM	8.35 µM	17.5 µM	> 100 µM
O=C(CCl)Nc1ccc(Cc2ccc(NC(=O)CCl)cc2)cc1	1.54 µM	> 100 µM	> 100 µM	9.46 µM	> 23.4 µM	1.56 µM	3.03 µM	2.09 µM	5.1 µM	1.92 µM	5.25 µM	2.38 µM	6.1 µM	1.8 µM	3.47 µM	0.704 µM	3.14 µM	2.78 µM	2.77 µM	5.56 µM
CCCCNCCCCCNc1cc(OC)cc2cccnc12	> 100 µM	> 100 µM	64.5 µM	32.2 µM	27.2 µM	45.3 µM	> 100 µM	14.6 µM	28.2 µM	19.2 µM	39.4 µM	15.1 µM	30.1 µM	3.1 µM	16.4 µM	28.6 µM	23.8 µM	16.1 µM	13.4 µM	> 100 µM
O=c1[nH]c(=O)n(C2OC(CO)C(O)C2O)cc1F (configuration not stated)	0.00603 µM and < 0.0164 µM	> 56.4 µM	27.6 µM	53.4 µM	1.91 µM	0.0236 µM	21 µM	0.0462 µM	21.1 µM	0.0314 µM	> 100 µM		8.59 µM	0.0346 µM	54.2 µM	0.0274 µM		1.33 µM		
CCS(=O)(=O)N1CCN(c2ccc(Nc3ncc(C(N)=O)c(NC4CC4)n3)cc2)CC1	4.77 µM	> 100 µM	35.9 µM	> 100 µM	18.4 µM	12.5 µM	82.8 µM	5.31 µM	> 100 µM	20.6 µM	61.9 µM	3.51 µM	29.7 µM	23.8 µM	> 100 µM	2.78 µM	7.12 µM	21.2 µM	1.1 µM	23.4 µM
